Test results: patent US5280027A, “Anti-tumor compounds” (Imperial Chemical Industries PLC, priority 1990, dated 1994)
Like-named read-outs stand apart in the source and are kept apart here.

Columns and labels:
[1] = test system: human breast, ovarian and liver cancer; settings: clinical; cited from earlier work
[2] = cited from earlier work
thymidylate synthase = molecular target: T1, thymidylate synthase (Mus musculus, UniProt P07607); assay: Test (a): in vitro inhibition of the enzyme thymidylate synthase (partially purified from L1210 mouse leukaemia cells); type: biochemical
T1 construct: obtained in partially purified form from L1210 mouse leukaemia cells; endogenous in cells; host or cells: L1210 mouse leukaemia cells (enzyme partially purified)
Excerpt: (a) An in vitro assay which determines the ability of a test compound to inhibit the enzyme thymidylate synthase. Thymidylate synthase was obtained in partially purified form from L1210 mouse leukaemia cells and utilised using the procedures described by Jackman et al. (Cancer Res., 1986, 46, 2810 and Sikora et al., Biochem. Pharmacol. 1988, 37, 4047);

L1210 cell line = assay: Test (b): inhibition of growth of the leukaemia cell line L1210 in cell culture; type: cell-based; settings: Mus musculus
Excerpt: (b) An assay which determines the ability of a test compound to inhibit the growth of the leukaemia cell line L1210 in cell culture. The test is similar to that described in UK Patent Specification No. 2065653B and has been described by Jones et al., J. Med. Chem., 1985, 28, 1468;

MCF-7 cell line = assay: Test (c): inhibition of growth of the human breast cancer cell line MCF-7 in cell culture; type: cell-based; settings: MCF7, MCF-7 growth
Excerpt: (c) An assay which determines the ability of a test compound to inhibit the growth of the human breast cancer cell line MCF-7 in cell culture. The test is similar to that described by Lippman et al. (Cancer Res., 1976, 36, 4595); and […]

[3] = Test (a), thymidylate synthase, read-out: IC50

T1 sequence (P07607 whole entry): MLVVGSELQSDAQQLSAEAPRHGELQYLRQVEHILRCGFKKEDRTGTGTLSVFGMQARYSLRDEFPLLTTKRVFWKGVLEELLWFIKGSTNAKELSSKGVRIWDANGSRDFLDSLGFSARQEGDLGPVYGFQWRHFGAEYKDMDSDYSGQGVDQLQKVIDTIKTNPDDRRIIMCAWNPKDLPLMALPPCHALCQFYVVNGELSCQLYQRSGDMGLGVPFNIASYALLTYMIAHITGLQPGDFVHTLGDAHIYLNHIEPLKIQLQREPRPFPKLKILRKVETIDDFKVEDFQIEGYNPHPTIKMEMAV

Compound	activity against human breast, ovarian and liver cancer [1]	toxicity in humans, particularly in relation to the liver and kidney [2]	IC50 (thymidylate synthase; [3])	IC50 (L1210 cell line)	IC50 (MCF-7 cell line)	IC50 (thymidylate synthase)
C#CCN(Cc1ccc2nc(N)[nH]c(=O)c2c1)c1ccc(C(=O)N[C@@H](CCC(=O)O)C(=O)O)cc1 [CB3717]	promising activity	symptoms of toxicity in humans, particularly in relation to the liver and kidney				
C#CCN(Cc1ccc2nc(C)[nH]c(=O)c2c1)c1ccc(C(=O)NC(c2ccccc2)c2ccccc2)cc1 [Example 7, N-diphenylmethyl-p-[N-(2-methyl-4-oxo-3,4-dihydroquinazolin-6-ylmethyl)-N-(prop-2-ynyl)amino]benzamide]			~2000 nM	~7 µM	~1500 nM	
C#CCN(Cc1ccc2nc(C)[nH]c(=O)c2c1)c1ccc(C(=O)NC(C(=O)NS(=O)(=O)c2ccc(OC)cc2)c2cccc([N+](=O)[O-])c2)cc1 (centres unmarked) [Example 10, N-[p-[N-(2-methyl-4-oxo-3,4-dihydroquinazolin-6-ylmethyl)-N-(prop-2-ynyl)amino]benzoyl]-(3-nitrophenyl)glycine N-(4-methoxyphenylsulphonyl)amide]				~25 µM	~1000 nM	~10 nM
C#CCN(Cc1cc2c(=O)[nH]c(C)nc2cc1C)c1ccc(C(=O)NC(CO)c2cccc([N+](=O)[O-])c2)cc1 (centres unmarked) [Example 14, compound no. 2, p-[N-(2,7-dimethyl-4-oxo-3,4-dihydroquinazolin-6-ylmethyl)-N-(prop-2-ynyl)amino]-N-[2-hydroxy-1-(3-nitrophenyl)ethyl]benzamide]			~20 nM	~3.4 µM	~100 nM	
